Source: US20230203098A1, “HUMAN TRANSFERRIN RECEPTOR BINDING PEPTIDE” (priority 2020, published 2023)
Where two headings read alike, the source gives them in different places. Each block holds one molecule with its values, some of them ahead of it. *1 amine or outer side, *2 acyl side, *3 side chain or, on linkers, in order; H or OH if unused. Where a SMILES comes first, the peptide text is derived from it. Bridges are numbered along the chain shown (N, C = ends). Side-chain parts run from the residue outwards. [ ]: non-standard residue; d: D form. The star is where a group is joined. X2 = O=C(O)c1cc(C(=O)*)ccc1-c1c2ccc(=O)cc-2oc2cc(O)ccc12; PEG12 = NCCOCCOCCOCCOCCOCCOCCOCCOCCOCCOCCOCCOCCC(=O)O; NMePhe(3-Cl) = CN[C@@H](Cc1cccc(Cl)c1)C(=O)O; NMeW = CN[C@@H](Cc1c[nH]c2ccccc12)C(=O)O; Lys(N3) = [N-]=[N+]=NCCCC[C@H](N)C(=O)O; NMeY = CN[C@@H](Cc1ccc(O)cc1)C(=O)O; NMeF = CN[C@@H](Cc1ccccc1)C(=O)O; Piperazinyl(4-Me) = CN1CCN(*)CC1; Aad = N[C@@H](CCCC(=O)O)C(=O)O; PEG4 = NCCOCCOCCOCCOCCC(=O)O; hLys = NCCCCC[C@H](N)C(=O)O; dOrn = NCCC[C@@H](N)C(=O)O; Nle = CCCC[C@H](N)C(=O)O; Aib = CC(C)(N)C(=O)O; CO = O=C([*:1])[*:2]; Sar = CNCC(=O)O

Biological target: transferrin receptor (hTfR) (Homo sapiens, UniProt P02786)
Sequence (P02786 whole entry): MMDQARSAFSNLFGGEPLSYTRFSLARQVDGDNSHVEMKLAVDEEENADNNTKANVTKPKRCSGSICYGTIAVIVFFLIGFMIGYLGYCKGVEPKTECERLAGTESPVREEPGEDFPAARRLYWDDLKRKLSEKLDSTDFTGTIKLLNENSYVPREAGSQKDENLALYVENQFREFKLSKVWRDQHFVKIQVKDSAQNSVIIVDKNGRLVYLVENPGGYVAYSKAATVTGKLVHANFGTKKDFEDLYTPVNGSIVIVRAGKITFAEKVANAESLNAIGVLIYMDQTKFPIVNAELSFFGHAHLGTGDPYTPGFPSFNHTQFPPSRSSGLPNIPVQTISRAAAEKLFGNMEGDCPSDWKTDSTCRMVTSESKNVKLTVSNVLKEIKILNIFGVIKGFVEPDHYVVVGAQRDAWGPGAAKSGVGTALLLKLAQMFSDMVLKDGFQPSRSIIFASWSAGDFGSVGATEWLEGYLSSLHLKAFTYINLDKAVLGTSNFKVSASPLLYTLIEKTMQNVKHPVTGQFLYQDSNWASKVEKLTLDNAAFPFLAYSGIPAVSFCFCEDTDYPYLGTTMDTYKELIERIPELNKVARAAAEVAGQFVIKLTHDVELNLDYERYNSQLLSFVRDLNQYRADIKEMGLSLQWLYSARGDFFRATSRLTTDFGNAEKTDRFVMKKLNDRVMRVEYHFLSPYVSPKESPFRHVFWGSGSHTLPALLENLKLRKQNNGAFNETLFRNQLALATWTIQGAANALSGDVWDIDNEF
Test: Intermolecular interaction evaluation test between transferrin receptor (hTfR) and peptide by surface plasmon resonance (SPR)
Assay type: binding
In short: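 Receptor was Ni-captured and EDC/NHS-fixed on an NTA chip; running buffer HEPES pH 8.0 with NaCl, Tween 20, BSA and 1.0% DMSO.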

[1] = binding to hTfR by SPR, Table 2 peptides, read-out: KD value (SPR) class
[2] = surface plasmon resonance, peptide vs hTfR, read-out: KD value, hTfR binding by SPR (class symbol)
[3] = surface plasmon resonance, hTfR, read-out: KD value for hTfR by SPR (class symbol)
[4] = surface plasmon resonance, peptide vs hTfR, read-out: KD value for hTfR by SPR (class symbol)

SMILES: CC[C@H](C)[C@@H]1NC(=O)[C@H](Cc2ccc(O)cc2)NC(=O)[C@H](Cc2ccc(O)cc2)NC(=O)[C@H](CC(N)=O)NC(=O)[C@H](Cc2c[nH]c3ccccc23)NC(=O)[C@H](C(C)C)NC(=O)[C@H](Cc2ccccc2)NC(=O)[C@H](C(C)C)NC(=O)[C@H](C)NC(=O)CSC[C@@H](C(=O)NCC(=O)NCC(=O)N[C@@H](CO)C(=O)NCC(=O)N[C@@H](CO)C(=O)NCC(=O)N[C@@H](CCCCNC(=O)C2CCC(CN3C(=O)C=CC3=O)CC2)C(N)=O)NC(=O)[C@H](Cc2ccc(O)cc2)NC(=O)[C@H](Cc2ccccc2)NC(=O)[C@H](CCCNC(=N)N)NC(=O)[C@H](CCCNC(=N)N)NC(=O)[C@H]([C@@H](C)CC)NC1=O (stereo partly shown) [compound 262]
Kd [1]: 100 to 1000 nM

SMILES: CC[C@H](C)[C@@H]1NC(=O)[C@H](Cc2ccc(OC)cc2)NC(=O)[C@H](Cc2ccc(O)cc2)NC(=O)[C@H](CC(N)=O)NC(=O)[C@H](Cc2c[nH]c3ccccc23)NC(=O)[C@H](C(C)C)NC(=O)[C@H](Cc2cccc(Cl)c2)N(C)C(=O)[C@H](C(C)C)NC(=O)[C@H](C)NC(=O)CSC[C@@H](C(=O)NCC(=O)NCC(=O)N[C@@H](CO)C(=O)NCC(=O)N[C@@H](CO)C(=O)NCC(=O)N[C@@H](CCCCN=[N+]=[N-])C(N)=O)NC(=O)[C@H](Cc2ccc(O)cc2)N(C)C(=O)[C@H](Cc2ccccc2)NC(=O)[C@@H](CCCNC(=N)N)NC(=O)[C@H](CCCCN)NC(=O)[C@H]([C@@H](C)CC)NC1=O [compound 314] ({CH2CO}-AV[NMePhe(3-Cl)]VWNYY(Me)IIK[dR]F[NMeY]CGGSGSG[Lys(N3)]-NH2; thioether N-15; C-terminus assumed)
Kd [2]: 1 to 100 nM

SMILES: CC[C@H](C)[C@@H]1NC(=O)[C@H](Cc2ccc(OC)cc2)NC(=O)[C@H](Cc2ccc(O)cc2)NC(=O)[C@H](CC(N)=O)NC(=O)[C@H](Cc2c[nH]c3ccccc23)N(C)C(=O)[C@H](C(C)C)NC(=O)[C@H](Cc2cccc(Cl)c2)N(C)C(=O)[C@H](C(C)C)NC(=O)[C@H](C)NC(=O)CSC[C@@H](C(=O)N(C)CC(=O)N(C)CC(=O)N(C)CC(N)=O)NC(=O)[C@H](Cc2ccc(O)cc2)N(C)C(=O)[C@H](Cc2ccccc2)NC(=O)[C@@H](CCCNC(=N)N)NC(=O)[C@H](CCCNC(=N)N)NC(=O)[C@H]([C@@H](C)CC)NC1=O [compound 399] ({CH2CO}-AV[NMePhe(3-Cl)]V[NMeW]NYY(Me)IIR[dR]F[NMeY]C[Sar][Sar][Sar]-NH2; thioether N-15)
Kd: 1 to 100 nM

SMILES: CC[C@H](C)[C@@H]1NC(=O)[C@H](Cc2ccc(O)cc2)NC(=O)[C@H](Cc2ccc(O)cc2)NC(=O)[C@H](CC(N)=O)NC(=O)[C@H](Cc2c[nH]c3ccccc23)NC(=O)[C@H](C(C)C)NC(=O)[C@H](Cc2ccccc2)N(C)C(=O)[C@H](C(C)C)NC(=O)[C@H](C)NC(=O)CSC[C@@H](C(=O)NCCOCCOCCOCCOCCC(N)=O)NC(=O)[C@H](Cc2ccc(O)cc2)N(C)C(=O)[C@H](Cc2ccc(O)cc2)NC(=O)[C@H](CCCCNC(=O)N2CCN(C)CC2)NC(=O)C(C)(C)NC(=O)[C@H]([C@@H](C)CC)NC1=O [compound 290] ({CH2CO}-AV[NMeF]VWNYYII[Aib]K([CO-Piperazinyl(4-Me)])Y[NMeY]C[PEG4]-NH2; thioether N-15)
Kd [1]: > 1000 nM

SMILES: CC[C@H](C)[C@@H]1NC(=O)[C@H]([C@@H](C)CC)NC(=O)[C@H](Cc2ccc(O)cc2)N(C)C(=O)[C@H](Cc2ccc(O)cc2)NC(=O)[C@H](CC(N)=O)NC(=O)[C@H](Cc2c[nH]c3ccccc23)NC(=O)[C@H](C(C)C)NC(=O)[C@H](Cc2ccccc2)N(C)C(=O)[C@H](C(C)C)NC(=O)[C@H](C)NC(=O)CSC[C@@H](C(=O)NCCOCCOCCOCCOCCOCCOCCOCCOCCOCCOCCOCCOCCC(N)=O)NC(=O)[C@H](Cc2ccc(O)cc2)N(C)C(=O)[C@H](Cc2ccc(O)cc2)NC(=O)[C@H](CCCNC(=N)N)NC(=O)[C@H](CCCNC(=N)N)NC1=O [compound 120]
Kd (SPR, hTfR No. 894 variants with PEG12c linker (Table 2), read-out: KD): 1 to 100 nM

SMILES: CC[C@H](C)[C@@H]1NC(=O)[C@H](CCCNC(=N)N)NC(=O)[C@H](CC(N)=O)NC(=O)[C@H](C)NC(=O)CSC[C@@H](C(=O)NCCOCCOCCOCCOCCOCCOCCOCCOCCOCCOCCOCCOCCC(=O)N[C@@H](CCCCNC(=O)c2ccc(-c3c4ccc(=O)cc-4oc4cc(O)ccc34)c(C(=O)O)c2)C(N)=O)NC(=O)[C@H](Cc2ccc(O)cc2)N(C)C(=O)[C@H](CCCNC(=N)N)NC(=O)[C@@H]2CCCN2C(=O)[C@H]([C@@H](C)CC)NC(=O)[C@H]([C@@H](C)CC)NC(=O)[C@H](Cc2ccc(O)cc2)NC(=O)[C@H](Cc2ccc(O)cc2)NC(=O)[C@H](CC(N)=O)NC(=O)[C@H](Cc2c[nH]c3ccccc23)NC(=O)[C@H](C(C)C)NC(=O)[C@H](Cc2ccccc2)NC(=O)[C@H](C(C)C)NC1=O [compound 153] ({CH2CO}-ANRIVFVWNYYIIPR[NMeY]C[PEG12]K(X2)-NH2; thioether N-17)
Kd (SPR, linker and payload (FITC, VivoTag) conjugates, read-out: KD): 1 to 100 nM

More lines, now with the values ahead:

Kd [3]: 1 to 100 nM
SMILES: CC[C@H](C)[C@@H]1NC(=O)[C@H](Cc2ccc(OC)cc2)NC(=O)[C@H](Cc2ccc(O)cc2)NC(=O)[C@H](CC(N)=O)NC(=O)[C@H](Cc2c[nH]c3ccccc23)N(C)C(=O)[C@H](C(C)C)NC(=O)[C@H](Cc2cccc(Cl)c2)N(C)C(=O)[C@H](C(C)C)NC(=O)[C@H](C)NC(=O)CSC[C@@H](C(=O)NCCOCCOCCOCCOCCC(N)=O)NC(=O)[C@H](Cc2ccc(O)cc2)NC(=O)[C@H](Cc2ccccc2)NC(=O)[C@@H](CCCNC(=N)N)NC(=O)C(C)(C)NC(=O)[C@H]([C@@H](C)CC)NC1=O [compound 352]

Kd [3]: 1 to 100 nM
SMILES: CC[C@H](C)[C@@H]1NC(=O)[C@H](Cc2ccc(OC)cc2)NC(=O)[C@H](Cc2ccc(O)cc2)NC(=O)[C@H](CC(N)=O)NC(=O)[C@H](Cc2c[nH]c3ccccc23)N(C)C(=O)[C@H](C(C)C)NC(=O)[C@H](Cc2cccc(Cl)c2)N(C)C(=O)[C@H](C(C)C)NC(=O)[C@H](C)NC(=O)CSC[C@@H](C(N)=O)NC(=O)[C@H](Cc2ccc(O)cc2)N(C)C(=O)[C@H](Cc2ccc(Cl)cc2)NC(=O)[C@@H](CCCNC(=N)N)NC(=O)[C@H](CCCNC(=N)N)NC(=O)[C@H]([C@@H](C)CC)NC1=O [compound 392]

Kd [2]: 1 to 100 nM
SMILES: CCCC[C@@H]1NC(=O)[C@H]([C@@H](C)CC)NC(=O)[C@H](Cc2ccc(OC)cc2)NC(=O)[C@H](Cc2ccc(O)cc2)NC(=O)[C@H](CC(N)=O)NC(=O)[C@H](Cc2c[nH]c3ccccc23)N(C)C(=O)[C@H](C(C)C)NC(=O)[C@H](Cc2cccc(Cl)c2)N(C)C(=O)[C@H](C(C)C)NC(=O)[C@H](C)NC(=O)CSC[C@@H](C(=O)NCCOCCOCCOCCOCCC(N)=O)NC(=O)[C@H](Cc2ccc(O)cc2)N(C)C(=O)[C@H](Cc2ccccc2)NC(=O)[C@@H](CCCNC(=N)N)NC(=O)[C@H](CCCNC(=N)N)NC1=O [compound 334] ({CH2CO}-AV[NMePhe(3-Cl)]V[NMeW]NYY(Me)I[Nle]R[dR]F[NMeY]C[PEG4]-NH2; thioether N-15)

Kd [3]: 1 to 100 nM
SMILES: CC[C@H](C)[C@@H]1NC(=O)[C@H](Cc2ccc(OC)cc2)NC(=O)[C@H](Cc2ccc(O)cc2)NC(=O)[C@H](CC(N)=O)NC(=O)[C@H](Cc2c[nH]c3ccccc23)N(C)C(=O)[C@H](C(C)C)NC(=O)[C@H](Cc2cccc(Cl)c2)N(C)C(=O)[C@H](C(C)C)NC(=O)[C@H](C)NC(=O)CSC[C@@H](C(N)=O)NC(=O)[C@H](Cc2ccc(O)cc2)N(C)C(=O)[C@H](Cc2cccc(OC)c2)NC(=O)[C@@H](CCCNC(=N)N)NC(=O)[C@H](CCCNC(=N)N)NC(=O)[C@H]([C@@H](C)CC)NC1=O [compound 394]

Kd [4]: 1 to 100 nM
SMILES: CC[C@H](C)[C@@H]1NC(=O)[C@H](Cc2ccc(OC)cc2)NC(=O)[C@H](Cc2ccc(O)cc2)NC(=O)[C@H](CC(N)=O)NC(=O)[C@H](Cc2c[nH]c3ccccc23)N(C)C(=O)[C@H](C(C)C)NC(=O)[C@H](Cc2cccc(Cl)c2)N(C)C(=O)[C@@H]2CCCC(=O)NCCCCC[C@H](NC(=O)[C@H]([C@@H](C)CC)NC1=O)C(=O)N[C@H](CCCNC(=N)N)C(=O)N[C@@H](Cc1ccccc1)C(=O)N(C)[C@@H](Cc1ccc(O)cc1)C(=O)N[C@H](C(N)=O)CSCC(=O)N[C@@H](C)C(=O)N2 [compound 418] ({CH2CO}-A[Aad][NMePhe(3-Cl)]V[NMeW]NYY(Me)II[hLys][dR]F[NMeY]C-NH2; lactam 2-11 (inferred); thioether N-15 (inferred))

Kd [4]: 1 to 100 nM
SMILES: CC[C@H](C)[C@@H]1NC(=O)[C@H](Cc2ccc(O)cc2)NC(=O)[C@H](Cc2ccc(O)cc2)NC(=O)[C@H](CC(N)=O)NC(=O)[C@H](Cc2c[nH]c3ccccc23)NC(=O)[C@H](C(C)C)NC(=O)[C@H](Cc2ccccc2)N(C)C(=O)[C@H](C(C)C)NC(=O)[C@H](C)NC(=O)CSC[C@@H](C(=O)NCC(=O)N[C@H](CCC(=O)O)C(=O)N[C@H](CCC(=O)O)C(=O)NCC(=O)N[C@@H](CO)C(=O)N[C@@H](CO)C(=O)N[C@@H](CSCC(=O)NC)C(N)=O)NC(=O)[C@H](Cc2ccc(O)cc2)N(C)C(=O)[C@H](Cc2ccc(O)cc2)NC(=O)[C@H](CCCNC(=N)N)NC(=O)[C@H](CCCNC(=N)N)NC(=O)[C@H]([C@@H](C)CC)NC1=O [compound 425]

Kd [2]: 1 to 100 nM
SMILES: CC[C@H](C)[C@@H]1NC(=O)[C@H](Cc2ccc(OC)cc2)NC(=O)[C@H](Cc2ccc(O)cc2)NC(=O)[C@H](CC(N)=O)NC(=O)[C@H](Cc2c[nH]c3ccccc23)N(C)C(=O)[C@H](C(C)C)NC(=O)[C@H](Cc2cccc(Cl)c2)N(C)C(=O)[C@H](C(C)C)NC(=O)[C@H](C)NC(=O)CSC[C@@H](C(=O)NCCOCCOCCOCCOCCC(N)=O)NC(=O)[C@H](Cc2ccc(O)cc2)N(C)C(=O)[C@H](Cc2ccccc2)NC(=O)[C@@H](CCCNC(=N)N)NC(=O)[C@H](CCCNC(=N)N)NC(=O)[C@@H](CCCN)NC1=O [compound 338] ({CH2CO}-AV[NMePhe(3-Cl)]V[NMeW]NYY(Me)I[dOrn]R[dR]F[NMeY]C[PEG4]-NH2; thioether N-15)
